This note sets out measurements from US12215112B2, “CD151 inhibitors” (ESFAM BIOTECH PTY LTD, priority 2020, dated 2025).

The structures appear in SMILES notation.

The assay deals with PC3 cells. Kind of assay: xCELLigence RTCA real-time cell invasion assay (CIM plate, Matrigel) on PC3 prostate cancer cells. The class given is cell-based. To be noted: Homo sapiens, PC-3, compound 25 uM to 1 uM, cell index monitored for 72 hours, four-parameter dose-response curve, read-out: IC50, Effect of compounds on the invention on prostate cancer cells. The essentials:
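PC3 invasion through 5% Matrigel-coated CIM-plate upper chambers was tracked as impedance cell index over 72 h. Compound at 25–1 µM was present in both chambers, with 3×10^4 cells seeded in serum-free RPMI. IC50 came from a four-parameter fit, and IC90 was derived from IC50 and the Hill slope.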
Consider `COc1cccc(NC(=O)c2nn3c(-c4cn[nH]c4)cc(N(C)Cc4ccccc4)nc3c2C(C)C)c1` [Compound 75, 5-(benzyl(methyl)amino)-3-isopropyl-N-(3-methoxyphenyl)-7-(1H-pyrazol-4-yl)pyrazolo[1,5-a]pyrimidine-2-carboxamide], for which the IC50 (as a rule, the concentration at which inhibition is half-maximal) worked out at 5.68 µM.

On to `CC(C)c1c(C(=O)Nc2cccc(OC(F)(F)F)c2)nn2c(-c3cn[nH]c3)cc(N(C)Cc3ccccc3)nc12` [Compound 76, 5-(benzyl(methyl)amino)-3-isopropyl-7-(1H-pyrazol-4-yl)-N-(3-(trifluoromethoxy)phenyl)pyrazolo[1,5-a]pyrimidine-2-carboxamide], for which the IC50 worked out at 11.6 µM.

Consider `COc1cccc(NC(=O)c2nn3c(-c4cn[nH]c4)cc(N4Cc5ccc(F)cc5C4)nc3c2C(C)C)c1` [Compound 77, 5-(5-fluoroisoindolin-2-yl)-3-isopropyl-N-(3-methoxyphenyl)-7-(1H-pyrazol-4-yl)pyrazolo[1,5-a]pyrimidine-2-carboxamide], for which the IC50 worked out at 11 µM.

For `CC(=O)Nc1cccc(NC(=O)c2nn3c(-c4cn[nH]c4)cc(N4Cc5ccc(F)cc5C4)nc3c2C(C)C)c1` [Compound 78, N-(3-acetamidophenyl)-5-(5-fluoroisoindolin-2-yl)-3-isopropyl-7-(1H-pyrazol-4-yl)pyrazolo[1,5-a]pyrimidine-2-carboxamide], the IC50 is 3.03 µM.

In the case of `CC(=O)N1CCN(c2cccc(NC(=O)c3nn4c(-c5cn[nH]c5)cc(N5Cc6ccc(F)cc6C5)nc4c3C(C)C)c2)CC1` [Compound 79, N-(3-(4-acetylpiperazin-1-yl)phenyl)-5-(5-fluoroisoindolin-2-yl)-3-isopropyl-7-(1H-pyrazol-4-yl)pyrazolo[1,5-a]pyrimidine-2-carboxamide], the IC50 came out at 4.05 µM.

For the molecule `CC(=O)N1CCN(c2ccc(NC(=O)c3nn4c(-c5cn[nH]c5)cc(N5Cc6ccc(F)cc6C5)nc4c3C(C)C)cc2)CC1` [Compound 80, N-(4-(4-acetylpiperazin-1-yl)phenyl)-5-(5-fluoroisoindolin-2-yl)-3-isopropyl-7-(1H-pyrazol-4-yl)pyrazolo[1,5-a]pyrimidine-2-carboxamide], the IC50 was found to be 1 µM.

Turning to `COc1cccc(NC(=O)c2nn3c(-c4cn[nH]c4)cc(N4Cc5ccc(Cl)cc5C4)nc3c2C(C)C)c1` [Compound 81, 5-(5-chloroisoindolin-2-yl)-3-isopropyl-N-(3-methoxyphenyl)-7-(1H-pyrazol-4-yl)pyrazolo[1,5-a]pyrimidine-2-carboxamide], the half-inhibitory concentration (IC50) was 2.45 µM.

In the case of `CC(=O)Nc1cccc(NC(=O)c2nn3c(-c4cn[nH]c4)cc(N4Cc5ccc(Cl)cc5C4)nc3c2C(C)C)c1` [Compound 82, N-(3-acetamidophenyl)-5-(5-chloroisoindolin-2-yl)-3-isopropyl-7-(1H-pyrazol-4-yl)pyrazolo[1,5-a]pyrimidine-2-carboxamide], the IC50 is 2.92 µM.

For `CC(=O)N1CCN(c2cccc(NC(=O)c3nn4c(-c5cn[nH]c5)cc(N5Cc6ccc(Cl)cc6C5)nc4c3C(C)C)c2)CC1` [Compound 83, N-(3-(4-acetylpiperazin-1-yl)phenyl)-5-(5-chloroisoindolin-2-yl)-3-isopropyl-7-(1H-pyrazol-4-yl)pyrazolo[1,5-a]pyrimidine-2-carboxamide], the IC50 was determined as 10.1 µM.

As for `CC(=O)N1CCN(c2ccc(NC(=O)c3nn4c(-c5cn[nH]c5)cc(N5Cc6ccc(Cl)cc6C5)nc4c3C(C)C)cc2)CC1` [Compound 84, N-(4-(4-acetylpiperazin-1-yl)phenyl)-5-(5-chloroisoindolin-2-yl)-3-isopropyl-7-(1H-pyrazol-4-yl)pyrazolo[1,5-a]pyrimidine-2-carboxamide], the IC50 was 1.1 µM.

As to `COc1cccc(NC(=O)c2nn3c(-c4cn[nH]c4)cc(N4Cc5ccc(Cl)cc5C4)nc3c2C(C)(C)C)c1` [Compound 89, 3-(tert-butyl)-5-(5-chloroisoindolin-2-yl)-N-(3-methoxyphenyl)-7-(1H-pyrazol-4-yl)pyrazolo[1,5-a]pyrimidine-2-carboxamide], the IC50 came out at 3.11 µM.

Take `O=C(Nc1cccc(O)c1)c1nn2c(-c3cn[nH]c3)cc(N3Cc4ccccc4C3)nc2c1C1CC1` [Compound 94, 3-cyclopropyl-N-(3-hydroxyphenyl)-5-(isoindolin-2-yl)-7-(1H-pyrazol-4-yl)pyrazolo[1,5-a]pyrimidine-2-carboxamide]: the IC50 was determined as 6.21 µM.

In the case of `CC(=O)N1CCN(c2cccc(NC(=O)c3nn4c(-c5cn[nH]c5)cc(N5Cc6ccccc6C5)nc4c3C3CC3)c2)CC1` [Compound 95, N-(3-(4-acetylpiperazin-1-yl)phenyl)-3-cyclopropyl-5-(isoindolin-2-yl)-7-(1H-pyrazol-4-yl)pyrazolo[1,5-a]pyrimidine-2-carboxamide], the IC50 stood at 2.12 µM.

As for `COc1ccc(NC(=O)c2nn3c(-c4cn[nH]c4)cc(N4Cc5ccccc5C4)nc3c2C2CC2)cc1` [Compound 96, 3-cyclopropyl-5-(isoindolin-2-yl)-N-(4-methoxyphenyl)-7-(1H-pyrazol-4-yl)pyrazolo[1,5-a]pyrimidine-2-carboxamide], the IC50 is 6.47 µM.

For the molecule `CC(=O)Nc1cccc(NC(=O)c2nn3c(-c4cn[nH]c4)cc(N4Cc5ccccc5C4)nc3c2C2CC2)c1` [Compound 97, N-(3-acetamidophenyl)-3-cyclopropyl-5-(isoindolin-2-yl)-7-(1H-pyrazol-4-yl)pyrazolo[1,5-a]pyrimidine-2-carboxamide], the IC50 is 1.08 µM.

Take `O=C(Nc1cccc(Cl)c1)c1nn2c(-c3cn[nH]c3)cc(N3Cc4ccccc4C3)nc2c1C1CC1` [Compound 98, N-(3-chlorophenyl)-3-cyclopropyl-5-(isoindolin-2-yl)-7-(1H-pyrazol-4-yl)pyrazolo[1,5-a]pyrimidine-2-carboxamide]: the IC50 turned out to be 12.5 µM.

For `CC(C)c1c(C(=O)Nc2cccc(O)c2)nn2c(-c3cn[nH]c3)cc(N3Cc4ccc(F)cc4C3)nc12` [Compound 99, 5-(5-fluoroisoindolin-2-yl)-N-(3-hydroxyphenyl)-3-isopropyl-7-(1H-pyrazol-4-yl)pyrazolo[1,5-a]pyrimidine-2-carboxamide], the IC50 was determined as 1.23 µM.

As to `CC(C)c1c(C(=O)Nc2cccc(O)c2)nn2c(-c3cn[nH]c3)cc(N3Cc4ccc(Cl)cc4C3)nc12` [Compound 100, 5-(5-chloroisoindolin-2-yl)-N-(3-hydroxyphenyl)-3-isopropyl-7-(1H-pyrazol-4-yl)pyrazolo[1,5-a]pyrimidine-2-carboxamide], the IC50 is 2.23 µM.

For `CC(C)c1c(C(=O)Nc2cccc(N3CCOCC3)c2)nn2c(-c3cn[nH]c3)cc(N3Cc4ccc(F)cc4C3)nc12` [Compound 101, 5-(5-fluoroisoindolin-2-yl)-3-isopropyl-N-(3-morpholinophenyl)-7-(1H-pyrazol-4-yl)pyrazolo[1,5-a]pyrimidine-2-carboxamide], the IC50 was found to be 3.99 µM.

`COCCOc1ccc(NC(=O)c2nn3c(-c4cn[nH]c4)cc(N4Cc5ccc(F)cc5C4)nc3c2C(C)C)cc1` [Compound 102, 5-(5-fluoroisoindolin-2-yl)-3-isopropyl-N-(4-(2-methoxyethoxy)phenyl)-7-(1H-pyrazol-4-yl)pyrazolo[1,5-a]pyrimidine-2-carboxamide]: the half-inhibitory concentration (IC50) came out at 1.27 µM.

In the case of `CC(C)c1c(C(=O)Nc2ccc3cn[nH]c3c2)nn2c(-c3cn[nH]c3)cc(N3Cc4ccc(F)cc4C3)nc12` [Compound 104, 5-(5-fluoroisoindolin-2-yl)-N-(1H-indazol-6-yl)-3-isopropyl-7-(1H-pyrazol-4-yl)pyrazolo[1,5-a]pyrimidine-2-carboxamide], the IC50 amounted to 2.89 µM.

With `CC(C)c1c(C(=O)Nc2ccc(N3CCOCC3)cc2)nn2c(-c3cn[nH]c3)cc(N3Cc4ccc(F)cc4C3)nc12` [Compound 106, 5-(5-fluoroisoindolin-2-yl)-3-isopropyl-N-(4-morpholinophenyl)-7-(1H-pyrazol-4-yl)pyrazolo[1,5-a]pyrimidine-2-carboxamide], the half-inhibitory concentration (IC50) was determined as 2.02 µM.

On to `CC(C)c1c(C(=O)Nc2ccc(N3CCOCC3)cc2)nn2c(-c3cn[nH]c3)cc(N3Cc4ccc(Cl)cc4C3)nc12` [Compound 107, 5-(5-chloroisoindolin-2-yl)-3-isopropyl-N-(4-morpholinophenyl)-7-(1H-pyrazol-4-yl)pyrazolo[1,5-a]pyrimidine-2-carboxamide], for which the IC50 came to 2.36 µM.

`CC(C)c1c(C(=O)Nc2cccc(N3CCOCC3)c2)nn2c(-c3cn[nH]c3)cc(N3Cc4ccc(Cl)cc4C3)nc12` [Compound 108, 5-(5-chloroisoindolin-2-yl)-3-isopropyl-N-(3-morpholinophenyl)-7-(1H-pyrazol-4-yl)pyrazolo[1,5-a]pyrimidine-2-carboxamide]: the IC50 worked out at 18.7 µM.

Turning to `COCCOc1ccc(NC(=O)c2nn3c(-c4cn[nH]c4)cc(N4Cc5ccc(Cl)cc5C4)nc3c2C(C)C)cc1` [Compound 109, 5-(5-chloroisoindolin-2-yl)-3-isopropyl-N-(4-(2-methoxyethoxy)phenyl)-7-(1H-pyrazol-4-yl)pyrazolo[1,5-a]pyrimidine-2-carboxamide], the IC50 was 3.23 µM.

On to `CC(C)c1c(C(=O)Nc2ccc(OC3CCOCC3)cc2)nn2c(-c3cn[nH]c3)cc(N3Cc4ccc(Cl)cc4C3)nc12` [Compound 119, 5-(5-chloroisoindolin-2-yl)-3-isopropyl-7-(1H-pyrazol-4-yl)-N-(4-((tetrahydro-2H-pyran-4-yl)oxy)phenyl)pyrazolo[1,5-a]pyrimidine-2-carboxamide], for which the IC50 came to 3.15 µM.

For `COc1ccc(F)c(NC(=O)c2nn3c(-c4cn[nH]c4)cc(N4Cc5ccc(Cl)cc5C4)nc3c2C(C)C)c1` [Compound 120, 5-(5-chloroisoindolin-2-yl)-N-(2-fluoro-5-methoxyphenyl)-3-isopropyl-7-(1H-pyrazol-4-yl)pyrazolo[1,5-a]pyrimidine-2-carboxamide], the IC50 worked out at 4.94 µM.

As for `CC(C)c1c(C(=O)Nc2cccc(OC3CCOCC3)c2)nn2c(-c3cn[nH]c3)cc(N3Cc4ccc(F)cc4C3)nc12` [Compound 121, 5-(5-fluoroisoindolin-2-yl)-3-isopropyl-7-(1H-pyrazol-4-yl)-N-(3-((tetrahydro-2H-pyran-4-yl)oxy)phenyl)pyrazolo[1,5-a]pyrimidine-2-carboxamide], the IC50 was 2.75 µM.
